Values quoted from earlier work as cited in patent publication US6063370A, “Macromolecular complexes for drug delivery” (The Board of Trustees of the University of Illinois, priority 1998, dated 2000).

Conditions: heparin having an Mw of about 6,000

Q: Which Bioavailability does the source give for heparin here?
A: 85%
